Patent publication US8314143B2, “Synthetic flavonoids and pharmaceutical compositions and therapeutic methods of treatment of HIV infection and other pathologies” (Florida A&M University, priority 2006, dated 2012)
Several values for one entry are separate records, joined by “and”; a condition that tells them apart may be missing. Identical values can stand only once. Entries after “also recorded” stand apart in the source; their conditions may differ.

Key:
Format in all cases: cell-based
[1] = system: PC-3 cells; assay: Cytoxicity on PC-3 cells (drug inhibition, cell count); details: for Drug Inhibition on PC-3 cells: Table 7; for % Inhibition Mean / Cells (×10^4) Mean / % Inhibition / Cells (×10^4): Exp. Nov. 11 to Nov. 17, 2005; for % Inhibition / Cells (×10^4): single replicates
Description: The purified and identified analogs were subjected to in vitro biological testing.

[2] = system: MCF-7 cells; assay: Cytoxicity on MCF-7 cells (drug inhibition, cell count); design: Drug Inhibition on MCF-7 Cells / MCF-7 Mean (drug inhibition) / Drug inhibition on MCF-7 Cells Mean: unit not given here; details: MCF-7 cells; for Drug Inhibition on MCF-7 Cells: Table 8 summary; for % Inhibition Mean / Cells (×10^4) Mean / % Inhibition / Cells (×10^4): Exp. Nov. 14 to Nov. 18, 2005; for % Inhibition / Cells (×10^4): single replicates
Description: (§1) The purified and identified analogs were subjected to in vitro biological testing. […] These three congeners were further evaluated in H9 and PC3 cells. AZT was employed as a positive control in all of these experiments.

[3] = system: H-9 cells; assay: Cytoxicity on H-9 cells (drug inhibition, cell count); details: for H-9 Mean (drug inhibition): Table 4 summary; for % Inhibition Mean / Cells (×10^4) Mean / % Inhibition / Cells (×10^4): Exp. Dec. 05 to Dec. 09, 2005; for % Inhibition / Cells (×10^4): single replicates
Description: as §1

Compound: COc1ccc(C=CC(=O)c2cc(Cl)cc(Cl)c2O)cc1OC [CHCl 2M]
- Drug Inhibition on PC-3 cells ([1]; 1 μg/ml): 42.4
- % Inhibition Mean ([1]; 1 μg/ml): 25.09%
- Cells (×10^4) Mean ([1]; 1 μg/ml): 73.42 ×10^4
- % Inhibition ([1]; 1 μg/ml): 24.23% and 24.49% and 26.53%
- Cells (×10^4) ([1]; 1 μg/ml): 74.3 ×10^4 and 74.0 ×10^4 and 72.0 ×10^4
- Drug Inhibition on PC-3 cells ([1]; 5 μg/ml): 73.76
- % Inhibition Mean ([1]; 5 μg/ml): 28.57%
- Cells (×10^4) Mean ([1]; 5 μg/ml): 70.00 ×10^4
- % Inhibition ([1]; 5 μg/ml): 29.59% and 29.08% and 27.04%
- Cells (×10^4) ([1]; 5 μg/ml): 69.0 ×10^4 and 69.5 ×10^4 and 71.5 ×10^4
- Drug Inhibition on PC-3 cells ([1]; 10 μg/ml): 87.02
- % Inhibition Mean ([1]; 10 μg/ml): 29.00%
- Cells (×10^4) Mean ([1]; 10 μg/ml): 69.58 ×10^4
- % Inhibition ([1]; 10 μg/ml): 30.61% and 28.57% and 27.81%
- Drug Inhibition on PC-3 cells ([1]; 50 μg/ml): 96.96
- % Inhibition Mean ([1]; 50 μg/ml): 36.65%
- Cells (×10^4) Mean ([1]; 50 μg/ml): 62.08 ×10^4
- % Inhibition ([1]; 50 μg/ml): 31.88% and 33.16% and 45.41%
- Cells (×10^4) ([1]; 50 μg/ml): 67.3 ×10^4 and 65.5 ×10^4 and 53.5 ×10^4
- inhibitory activity compared to AZT ([1]; same conditions as AZT): much superior inhibitory activities; also recorded: as good or somewhat better
- response to MCF-7 cells in the different drug concentrations [2]: good activities
- Drug Inhibition on MCF-7 Cells ([2]; 1 μg/ml): 14.55
- % Inhibition Mean ([2]; 1 μg/ml): 14.55%
- Cells (×10^4) Mean ([2]; 1 μg/ml): 49.42 ×10^4
- % Inhibition ([2]; 1 μg/ml): 13.98% and 16.14% and 13.54%
- Cells (×10^4) ([2]; 1 μg/ml): 49.8 ×10^4 and 48.5 ×10^4 and 50.0 ×10^4
- Drug Inhibition on MCF-7 Cells ([2]; 5 μg/ml): 44.09
- % Inhibition Mean ([2]; 5 μg/ml): 44.09%
- Cells (×10^4) Mean ([2]; 5 μg/ml): 32.33 ×10^4
- % Inhibition ([2]; 5 μg/ml): 44.67% and 45.53% and 42.07%
- Cells (×10^4) ([2]; 5 μg/ml): 32.0 ×10^4 and 31.5 ×10^4 and 33.5 ×10^4
- Drug Inhibition on MCF-7 Cells ([2]; 10 μg/ml): 81.99
- % Inhibition Mean ([2]; 10 μg/ml): 81.99%
- Cells (×10^4) Mean ([2]; 10 μg/ml): 10.42 ×10^4
- % Inhibition ([2]; 10 μg/ml): 82.71% and 81.41% and 81.84%
- Cells (×10^4) ([2]; 10 μg/ml): 10.0 ×10^4 and 10.8 ×10^4 and 10.5 ×10^4
- Drug Inhibition on MCF-7 Cells ([2]; 50 μg/ml): 98.70
- % Inhibition Mean ([2]; 50 μg/ml): 98.70%
- Cells (×10^4) Mean ([2]; 50 μg/ml): 0.75 ×10^4
- % Inhibition ([2]; 50 μg/ml): 98.27% and 99.14% and 98.70%
- Cells (×10^4) ([2]; 50 μg/ml): 1.0 ×10^4 and 0.5 ×10^4 and 0.8 ×10^4
- inhibitory activity compared to AZT ([2]; same conditions as AZT): much superior inhibitory activities; also recorded: as good or somewhat better
- H-9 Mean (drug inhibition) ([3]; 1 μg/ml): 15.92
- % Inhibition Mean ([3]; 1 μg/ml): 15.92%
- Cells (×10^4) Mean ([3]; 1 μg/ml): 42.25 ×10^4
- % Inhibition ([3]; 1 μg/ml): 16.42% and 15.92% and 15.42%
- Cells (×10^4) ([3]; 1 μg/ml): 42.0 ×10^4 and 42.3 ×10^4 and 42.6 ×10^4
- H-9 Mean (drug inhibition) ([3]; 5 μg/ml): 52.24
- % Inhibition Mean ([3]; 5 μg/ml): 52.24%
- Cells (×10^4) Mean ([3]; 5 μg/ml): 24.00 ×10^4
- % Inhibition ([3]; 5 μg/ml): 52.24% and 52.74% and 51.74%
- Cells (×10^4) ([3]; 5 μg/ml): 24.0 ×10^4 and 23.8 ×10^4 and 24.3 ×10^4
- H-9 Mean (drug inhibition) ([3]; 10 μg/ml): 74.3
- % Inhibition Mean ([3]; 10 μg/ml): 74.30%
- Cells (×10^4) Mean ([3]; 10 μg/ml): 12.92 ×10^4
- % Inhibition ([3]; 10 μg/ml): 74.13% and 77.11% and 71.64%
- Cells (×10^4) ([3]; 10 μg/ml): 13.0 ×10^4 and 11.5 ×10^4 and 14.3 ×10^4
- H-9 Mean (drug inhibition) ([3]; 50 μg/ml): 91.04
- % Inhibition Mean ([3]; 50 μg/ml): 91.04%
- Cells (×10^4) Mean ([3]; 50 μg/ml): 4.50 ×10^4
- % Inhibition ([3]; 50 μg/ml): 92.04% and 91.04% and 90.05%
- Cells (×10^4) ([3]; 50 μg/ml): 4.0 ×10^4 and 4.5 ×10^4 and 5.0 ×10^4
- inhibitory activity compared to AZT ([3]; same conditions as AZT): much superior inhibitory activities; also recorded: as good or somewhat better

Compound: COc1ccc(C=CC(=O)c2cc(C)cc([N+](=O)[O-])c2O)cc1OC [CHNM 2M]
- Drug Inhibition on PC-3 cells ([1]; 1 μg/ml): 27.9
- % Inhibition Mean ([1]; 1 μg/ml): 9.10%
- Cells (×10^4) Mean ([1]; 1 μg/ml): 89.08 ×10^4
- % Inhibition ([1]; 1 μg/ml): 9.69% and 17.09% and 0.51%
- Cells (×10^4) ([1]; 1 μg/ml): 88.5 ×10^4 and 81.3 ×10^4 and 97.5 ×10^4
- Drug Inhibition on PC-3 cells ([1]; 5 μg/ml): 39.36
- % Inhibition Mean ([1]; 5 μg/ml): 36.05%
- Cells (×10^4) Mean ([1]; 5 μg/ml): 62.67 ×10^4
- % Inhibition ([1]; 5 μg/ml): 39.29% and 36.99% and 31.89%
- Cells (×10^4) ([1]; 5 μg/ml): 59.5 ×10^4 and 61.8 ×10^4 and 66.8 ×10^4
- Drug Inhibition on PC-3 cells ([1]; 10 μg/ml): 45.03
- % Inhibition Mean ([1]; 10 μg/ml): 35.80%
- Cells (×10^4) Mean ([1]; 10 μg/ml): 62.92 ×10^4
- % Inhibition ([1]; 10 μg/ml): 36.22% and 38.52% and 32.65%
- Drug Inhibition on PC-3 cells ([1]; 50 μg/ml): 59.67
- % Inhibition Mean ([1]; 50 μg/ml): 48.81%
- Cells (×10^4) Mean ([1]; 50 μg/ml): 50.17 ×10^4
- % Inhibition ([1]; 50 μg/ml): 49.23% and 46.43% and 50.77%
- Drug Inhibition on MCF-7 Cells ([2]; 1 μg/ml): 6.77
- % Inhibition Mean ([2]; 1 μg/ml): 6.77%
- Cells (×10^4) Mean ([2]; 1 μg/ml): 53.92 ×10^4
- % Inhibition ([2]; 1 μg/ml): 8.36% and 4.47% and 7.49%
- Cells (×10^4) ([2]; 1 μg/ml): 53.0 ×10^4 and 55.3 ×10^4 and 53.5 ×10^4
- Drug Inhibition on MCF-7 Cells ([2]; 5 μg/ml): 20.17
- % Inhibition Mean ([2]; 5 μg/ml): 20.17%
- Cells (×10^4) Mean ([2]; 5 μg/ml): 46.17 ×10^4
- % Inhibition ([2]; 5 μg/ml): 21.33% and 22.19% and 17.00%
- Cells (×10^4) ([2]; 5 μg/ml): 45.5 ×10^4 and 45.0 ×10^4 and 48.0 ×10^4
- Drug Inhibition on MCF-7 Cells ([2]; 10 μg/ml): 31.27
- % Inhibition Mean ([2]; 10 μg/ml): 31.27%
- Cells (×10^4) Mean ([2]; 10 μg/ml): 39.75 ×10^4
- % Inhibition ([2]; 10 μg/ml): 29.97% and 32.56% and 31.27%
- Cells (×10^4) ([2]; 10 μg/ml): 40.5 ×10^4 and 39.0 ×10^4 and 39.8 ×10^4
- Drug Inhibition on MCF-7 Cells ([2]; 50 μg/ml): 42.07
- % Inhibition Mean ([2]; 50 μg/ml): 42.07%
- Cells (×10^4) Mean ([2]; 50 μg/ml): 33.50 ×10^4
- % Inhibition ([2]; 50 μg/ml): 43.80% and 40.35% and 42.07%
- Cells (×10^4) ([2]; 50 μg/ml): 32.5 ×10^4 and 34.5 ×10^4 and 33.5 ×10^4
- H-9 Mean (drug inhibition) ([3]; 1 μg/ml): −15.75
- % Inhibition Mean ([3]; 1 μg/ml): −15.75%
- Cells (×10^4) Mean ([3]; 1 μg/ml): 58.17 ×10^4
- % Inhibition ([3]; 1 μg/ml): −13.93% and −19.90% and −13.43%
- Cells (×10^4) ([3]; 1 μg/ml): 57.3 ×10^4 and 60.3 ×10^4 and 57.0 ×10^4
- H-9 Mean (drug inhibition) ([3]; 5 μg/ml): −16.58
- % Inhibition Mean ([3]; 5 μg/ml): −16.58%
- Cells (×10^4) Mean ([3]; 5 μg/ml): 58.58 ×10^4
- % Inhibition ([3]; 5 μg/ml): −22.39% and −10.45% and −16.92%
- Cells (×10^4) ([3]; 5 μg/ml): 61.5 ×10^4 and 55.5 ×10^4 and 58.8 ×10^4
- H-9 Mean (drug inhibition) ([3]; 10 μg/ml): −1
- % Inhibition Mean ([3]; 10 μg/ml): −1.00%
- Cells (×10^4) Mean ([3]; 10 μg/ml): 50.75 ×10^4
- % Inhibition ([3]; 10 μg/ml): −0.50% and −3.98% and 1.49%
- Cells (×10^4) ([3]; 10 μg/ml): 50.5 ×10^4 and 52.3 ×10^4 and 49.5 ×10^4
- H-9 Mean (drug inhibition) ([3]; 50 μg/ml): −11.44
- % Inhibition Mean ([3]; 50 μg/ml): −11.44%
- Cells (×10^4) Mean ([3]; 50 μg/ml): 56.00 ×10^4
- % Inhibition ([3]; 50 μg/ml): −12.94% and −8.96% and −12.44%
- Cells (×10^4) ([3]; 50 μg/ml): 56.8 ×10^4 and 54.8 ×10^4 and 56.5 ×10^4
